Results reported in patent publication US9381148B2, “Composition comprising particulate zinc material with a high relative zinc lability” (priority 2003, dated 2016).
Where two headings read alike, the source gives them in different places.

Key:
[1] = Text: Those materials with high potential to bind to the PZM surface are ZBM's that form only sparingly soluble salts with zinc in water. “Sparingly soluble” refers to zinc salts with 1 gram(g)/100 g water solubility or less. These are the materials that form precipitated surface species on the PZM that interfere with zinc lability. A summary of the solubilities of common zinc salts is shown below: […]
[2] = zinc salt of the counterion; reference A, selected literature data for 25–30° C.; cited from earlier work

| Compound | Solubility (g/100 g water) ([1]; pH 7) | further results |
| --- | --- | --- |
| O=C(O)c1ccccc1O [Salicylate] | 0.29 g/100 g water |  |
| Laurate |  | Solubility (g/100 g water) ([1]; zinc salt of the counterion, reference B, commercially sourced materials (Pfaltz & Bauer), water at pH 7 and room temperature, filtered, ICP): 0.012 g/100 g water |
| [O-][Cl+3]([O-])([O-])O [Perchlorate] |  | Solubility (g/100 g water) [2]: 113.5 g/100 g water |
| Phosphate | 0.0013 g/100 g water |  |
